Laboratory results as given in ChEMBL document CHEMBL1150434, “Semisynthetic modification of hygromycin A. 1. Synthesis and antibacterial activity of vinyl methyl and amide analogs” (1992).
In brackets after ≈: the same amount, converted by molar mass. Activity calls are given as the source filed them. The rule behind the calls is not given here.

Key:
[1] = tested on: Brachyspira hyodysenteriae; assay: Antibacterial activity against Serpulina hyodysenteriae; assay type: functional
[2] = tested on: Brachyspira hyodysenteriae; assay: Tested for antibacterial activity against Serpulina hyodysenteriae at a concentration of up to 200 ug/mL; IA= Inactive; assay type: functional, organism-based

Row | SMILES | MIC [1] [µg/mL] | Activity [2]
1 | CCC/C(=C\c1ccc(O[C@@H]2O[C@H]([C@@H](C)O)[C@@H](O)[C@@H]2O)c(O)c1)C(=O)N[C@@H]1[C@H](O)[C@@H](O)[C@H]2OCO[C@H]2[C@@H]1O | > 200 | –
2 | C/C(=C\c1ccc(O[C@@H]2O[C@H]([C@H](C)O)[C@@H](O)[C@@H]2O)c(O)c1)C(=O)N1CCC[C@H]1C(=O)O | – | inactive
3 | C/C(=C\c1ccc(O[C@@H]2O[C@H]([C@H](C)O)[C@@H](O)[C@@H]2O)c(O)c1)C(=O)N[C@@H]1CCC[C@H]1O | – | inactive
4 | C[C@@H](O)[C@H]1O[C@@H](Oc2ccc(/C=C(\Cl)C(=O)N[C@@H]3[C@H](O)[C@@H](O)[C@H]4OCO[C@H]4[C@@H]3O)cc2O)[C@@H](O)[C@@H]1O | 6.25 (≈ 11.7 µM) | –
5 | C/C(=C\c1ccc(O[C@@H]2O[C@H]([C@H](C)O)[C@@H](O)[C@@H]2O)c(O)c1)C(=O)NC1(CO)CCCC1 | – | inactive
6 | C/C(=C\c1ccc(O[C@@H]2O[C@H]([C@H](C)O)[C@@H](O)[C@@H]2O)c(O)c1)C(=O)N[C@H]1CC[C@H](O)CC1 | – | inactive
7 | CC(=O)[C@H]1O[C@@H](Oc2ccc(C=C(C)C(=O)N[C@@H]3[C@H](O)[C@@H](O)[C@H]4OCO[C@H]4[C@@H]3O)cc2O)[C@@H](O)[C@@H]1O [HYGROMYCIN A] | 0.78 (≈ 1.52 µM) | –
8 | C/C(=C\c1ccc(O[C@@H]2O[C@H]([C@H](C)O)[C@@H](O)[C@@H]2O)c(O)c1)C(=O)N1CCC[C@H]1CO | – | inactive
9 | C/C(=C\c1ccc(O[C@@H]2O[C@H]([C@H](C)O)[C@@H](O)[C@@H]2O)c(O)c1)C(=O)N[C@@H]1C(O)O[C@H](CO)[C@@H](O)[C@@H]1O (some centres not stated) | – | inactive
10 | C#CC/C(=C\c1ccc(O[C@@H]2O[C@H]([C@@H](C)O)[C@@H](O)[C@@H]2O)c(O)c1)C(=O)N[C@@H]1[C@H](O)[C@@H](O)[C@H]2OCO[C@H]2[C@@H]1O | 100 (≈ 186 µM) | –
11 | C/C(=C\c1ccc(O[C@@H]2O[C@H]([C@H](C)O)[C@@H](O)[C@@H]2O)c(O)c1)C(=O)N1CCCCC1CO (some centres not stated) | – | inactive
12 | C/C(=C\c1ccc(O[C@@H]2O[C@H]([C@H](C)O)[C@@H](O)[C@@H]2O)c(O)c1)C(=O)NCCO | – | inactive
13 | C/C(=C\c1ccc(O[C@@H]2O[C@H]([C@H](C)O)[C@@H](O)[C@@H]2O)c(O)c1)C(=O)N[C@H]1C(O)O[C@H](CO)[C@@H](O)[C@@H]1O (some centres not stated) | – | inactive
14 | C/C(=C\c1ccc(O[C@@H]2O[C@H]([C@H](C)O)[C@@H](O)[C@@H]2O)c(O)c1)C(=O)N1CCOCC1 | – | inactive
15 | C[C@@H](O)[C@H]1O[C@@H](Oc2ccc(/C=C/C(=O)N[C@@H]3[C@H](O)[C@@H](O)[C@H]4OCO[C@H]4[C@@H]3O)cc2O)[C@@H](O)[C@@H]1O | 100 (≈ 200 µM) | –
16 | CC/C(=C\c1ccc(O[C@@H]2O[C@H]([C@@H](C)O)[C@@H](O)[C@@H]2O)c(O)c1)C(=O)N[C@@H]1[C@H](O)[C@@H](O)[C@H]2OCO[C@H]2[C@@H]1O | 3.13 (≈ 5.93 µM) | –
17 | C/C(=C\c1ccc(O[C@@H]2O[C@H]([C@@H](C)O)[C@@H](O)[C@@H]2O)c(O)c1)C(=O)N[C@@H]1[C@H](O)[C@@H](O)[C@H]2OCO[C@H]2[C@@H]1O | 3.13 (≈ 6.1 µM) | –
18 | C/C(=C\c1ccc(O[C@@H]2O[C@H]([C@H](C)O)[C@@H](O)[C@@H]2O)c(O)c1)C(=O)N1CCN(C)CC1 | – | inactive
19 | C/C(=C\c1ccc(O[C@@H]2O[C@H]([C@H](C)O)[C@@H](O)[C@@H]2O)c(O)c1)C(=O)NC1CCCCC1 | – | inactive
20 | C/C(=C\c1ccc(O[C@@H]2O[C@H]([C@H](C)O)[C@@H](O)[C@@H]2O)c(O)c1)C(=O)NC(CO)CO | – | inactive
21 | C[C@@H](O)[C@H]1O[C@@H](Oc2ccc(/C=C(\Br)C(=O)N[C@@H]3[C@H](O)[C@@H](O)[C@H]4OCO[C@H]4[C@@H]3O)cc2O)[C@@H](O)[C@@H]1O | 3.13 (≈ 5.41 µM) | –
22 | C/C(=C\c1ccc(O[C@@H]2O[C@H]([C@H](C)O)[C@@H](O)[C@@H]2O)c(O)c1)C(=O)N1CCNCC1 | – | inactive
23 | C=CC/C(=C\c1ccc(O[C@@H]2O[C@H]([C@@H](C)O)[C@@H](O)[C@@H]2O)c(O)c1)C(=O)N[C@@H]1[C@H](O)[C@@H](O)[C@H]2OCO[C@H]2[C@@H]1O | > 200 | –
24 | C/C(=C\c1ccc(O[C@@H]2O[C@H]([C@H](C)O)[C@@H](O)[C@@H]2O)c(O)c1)C(=O)N[C@@H]1CCCC[C@@H]1O | – | inactive
25 | C/C(=C\c1ccc(O[C@@H]2O[C@H]([C@H](C)O)[C@@H](O)[C@@H]2O)c(O)c1)C(=O)N[C@@H]1CCCC[C@H]1O | – | inactive
26 | C/C(=C\c1ccc(O[C@@H]2O[C@H]([C@H](C)O)[C@@H](O)[C@@H]2O)c(O)c1)C(=O)N1CCN(C(=O)N2CCNCC2)CC1 | – | inactive
27 | C/C(=C\c1ccc(O[C@@H]2O[C@H]([C@H](C)O)[C@@H](O)[C@@H]2O)c(O)c1)C(=O)N[C@@H]1CCC[C@@H]1O | – | inactive
